Key:
[1] = biological target: T1, Complement factor B (Homo sapiens, UniProt P00751); assay: Optical surface plasmon resonance (SPR) binding affinity assay
Target sequence in this assay (P00751 26-764): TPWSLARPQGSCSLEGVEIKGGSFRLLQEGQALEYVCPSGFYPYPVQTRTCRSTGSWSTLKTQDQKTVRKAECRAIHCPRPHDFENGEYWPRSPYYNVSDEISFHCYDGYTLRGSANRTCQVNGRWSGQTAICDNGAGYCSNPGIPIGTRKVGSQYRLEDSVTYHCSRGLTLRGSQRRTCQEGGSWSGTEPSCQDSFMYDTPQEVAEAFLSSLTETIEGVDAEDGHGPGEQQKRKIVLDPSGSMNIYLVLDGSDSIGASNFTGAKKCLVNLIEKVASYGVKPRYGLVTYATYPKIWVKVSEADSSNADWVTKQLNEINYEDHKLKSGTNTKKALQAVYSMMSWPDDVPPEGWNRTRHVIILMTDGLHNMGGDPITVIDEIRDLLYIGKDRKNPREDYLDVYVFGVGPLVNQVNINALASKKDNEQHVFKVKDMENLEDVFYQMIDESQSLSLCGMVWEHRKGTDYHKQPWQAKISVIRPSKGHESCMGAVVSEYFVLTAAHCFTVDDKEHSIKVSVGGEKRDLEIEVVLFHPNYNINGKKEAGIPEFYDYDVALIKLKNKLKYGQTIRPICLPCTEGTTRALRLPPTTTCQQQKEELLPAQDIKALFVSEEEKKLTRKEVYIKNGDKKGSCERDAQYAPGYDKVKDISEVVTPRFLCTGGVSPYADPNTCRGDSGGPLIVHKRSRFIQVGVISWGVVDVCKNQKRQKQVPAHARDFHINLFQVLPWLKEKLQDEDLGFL
Method: The SPR experiment was conducted at 25° C. using PBS buffer supplemented with 0.05% (v/v) P20 and 5% DMSO as the running buffer. The Biacore 8K instrument from GE Healthcare was employed for analysis. The CM3 chip (GE Healthcare) was activated with 400 mM EDC and 100 mM NHS at a flow rate of 30 μL/min for 420 s.

[2] = biological target: T1, Complement factor B; assay: Human complement factor B ELISA assay (CVF-Bb, complement C3 protein); assay type: biochemical; design: followed by the addition of 0.2 μL of CVF-Bb (0.1 μmol/mL); conditions: CVF-Bb incubated with compound 1 hour, then complement C3 protein 37° C. 2 hours, OD 450 nm
Method: The mixture was incubated at room temperature for 1 hour;
Then, 9 μL of the successfully incubated samples were taken and added to the wells of the 96T plate, followed by the addition of 1 μL complement C3 protein, and the reaction was carried out at a constant temperature of 37° C. for 2 hours;
The 9 μL of the aforementioned sample-free liquid was mixed with 1 μL of complement C3 protein as the negative control; • 10 μL of the successfully incubated sample was taken, and the inhibitory concentration was determined by ELISA. The OD value at 450 nm was measured, and a curve was plotted. The obtained data were analyzed using GraphPad Prism 7.0 software, and a Log concentration-inhibition rate curve was generated using a nonlinear regression model to calculate the IC50 value.
Target sequence in this assay (P00751 260-764 limits assumed): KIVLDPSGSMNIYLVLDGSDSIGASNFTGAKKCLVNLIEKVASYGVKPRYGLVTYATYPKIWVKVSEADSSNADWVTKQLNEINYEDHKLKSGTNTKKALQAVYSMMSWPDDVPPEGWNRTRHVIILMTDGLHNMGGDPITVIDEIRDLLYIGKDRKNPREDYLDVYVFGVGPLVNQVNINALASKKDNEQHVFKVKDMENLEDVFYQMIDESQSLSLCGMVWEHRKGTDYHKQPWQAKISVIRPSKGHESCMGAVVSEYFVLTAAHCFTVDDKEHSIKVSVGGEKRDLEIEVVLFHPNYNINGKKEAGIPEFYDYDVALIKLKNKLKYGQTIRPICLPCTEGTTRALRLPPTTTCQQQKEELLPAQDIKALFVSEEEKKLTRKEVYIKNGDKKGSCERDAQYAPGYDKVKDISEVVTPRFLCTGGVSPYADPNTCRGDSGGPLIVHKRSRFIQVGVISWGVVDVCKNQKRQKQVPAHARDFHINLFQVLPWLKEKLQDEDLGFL
Target sequence in this assay (Q91132 23-649 partner limits assumed): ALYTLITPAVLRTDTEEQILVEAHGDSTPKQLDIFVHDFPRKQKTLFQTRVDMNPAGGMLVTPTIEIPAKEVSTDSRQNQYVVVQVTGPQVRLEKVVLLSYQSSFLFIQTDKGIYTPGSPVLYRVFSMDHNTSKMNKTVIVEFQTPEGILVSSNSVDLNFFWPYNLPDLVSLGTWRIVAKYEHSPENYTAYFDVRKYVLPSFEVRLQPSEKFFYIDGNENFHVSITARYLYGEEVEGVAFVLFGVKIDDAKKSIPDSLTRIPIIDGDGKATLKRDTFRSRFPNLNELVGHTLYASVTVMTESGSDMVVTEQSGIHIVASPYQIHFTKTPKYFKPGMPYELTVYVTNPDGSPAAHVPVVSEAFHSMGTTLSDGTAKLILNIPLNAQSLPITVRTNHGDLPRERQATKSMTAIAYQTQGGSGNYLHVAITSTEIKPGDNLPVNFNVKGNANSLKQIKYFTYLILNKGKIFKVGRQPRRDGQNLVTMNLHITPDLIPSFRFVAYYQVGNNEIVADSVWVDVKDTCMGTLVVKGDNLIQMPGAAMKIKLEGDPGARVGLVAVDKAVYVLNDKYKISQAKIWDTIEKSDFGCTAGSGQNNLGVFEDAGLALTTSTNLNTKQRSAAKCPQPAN
Target sequence in this assay (Q91132 733-984 partner limits assumed): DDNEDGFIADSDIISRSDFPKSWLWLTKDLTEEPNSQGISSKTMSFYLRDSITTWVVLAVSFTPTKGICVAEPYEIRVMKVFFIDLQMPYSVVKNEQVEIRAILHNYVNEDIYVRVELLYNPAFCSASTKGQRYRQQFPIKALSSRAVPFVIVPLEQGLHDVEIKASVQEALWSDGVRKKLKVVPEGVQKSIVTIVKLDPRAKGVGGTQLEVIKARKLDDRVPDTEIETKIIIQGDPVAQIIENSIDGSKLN
Target sequence in this assay (Q91132 1264-1642 partner limits assumed): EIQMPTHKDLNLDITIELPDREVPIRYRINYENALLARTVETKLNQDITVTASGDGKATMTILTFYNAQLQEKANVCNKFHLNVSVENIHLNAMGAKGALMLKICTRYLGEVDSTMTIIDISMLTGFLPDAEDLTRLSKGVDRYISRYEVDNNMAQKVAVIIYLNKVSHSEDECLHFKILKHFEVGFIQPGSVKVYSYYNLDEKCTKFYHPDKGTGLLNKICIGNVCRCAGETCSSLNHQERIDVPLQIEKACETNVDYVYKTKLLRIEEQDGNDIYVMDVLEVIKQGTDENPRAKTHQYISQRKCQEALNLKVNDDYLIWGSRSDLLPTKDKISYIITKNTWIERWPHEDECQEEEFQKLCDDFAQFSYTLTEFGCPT

[3] = tested on: PNH-like erythrocytes; assay: Alternative pathway inhibition assay of PNH-like erythrocyte; assay type: cell-based; conditions: 1 h, AET/anti-CD55 sensitized human erythrocytes, acidified normal human serum pH 6.4, 37° C. 60 min
Source text: Principle: PNH, as an indication for complement inhibitors, was typically tested using the Ham test, which states that acidified serum was capable of activating the alternative pathway, leading to hemolysis of PNH erythrocytes, while normal erythrocytes remained unaffected. It was reported in the literature that AET could disrupt the complement regulatory proteins on the surface of normal human erythrocytes, resulting in PNH-like erythrocytes.
Reagents and instrument: PBS buffer, normal human serum (NHS), Alsever's solution, microplate reader, MgCl2, EGTA, EDTA, HCl, normal human erythrocytes, AET; anti-CD-55 antibody (BRIC216; Sigma)
PBS buffer: Potassium dihydrogen phosphate (KH2PO4): 0.24 g/L, disodium hydrogen phosphate (Na2HPO4): 1.44 g/L, sodium chloride (NaCl): 8 g/L, potassium chloride (KCl): 0.2 g/L, pH 7.4
PBSE buffer: PBS, 10 mM EDTA; pH 7.4
PBSMg buffer: PBS, 1 mM Mg++; pH 6.4
10× Mg-EGTA stock solution: 25 mM MgCl2, 80 mM EGTA; pH 6.4
10× EDTA stock solution: 100 mM EDTA; pH 6.4
Method: The inhibition of alternative pathway-mediated erythrocyte lysis was evaluated using an in vitro model of PNH. Normal human erythrocytes were sensitized with 2-aminoethylisothiouronium bromide (AET) to inactivate complement regulatory proteins on the cell surface and induce a PNH-like phenotype.
2 mL of normal human erythrocytes were mixed with 2 mL of Alsever's solution, washed three times with PBS, and centrifuged at 2500×g, with the upper 10% of the erythrocytes being removed each time. The washed 1 mL erythrocytes were sensitized by incubation with 4 mL of 8% w/v AET (pH 8.0) at 37° C. for 10 min, followed by three additional washes with PBS. Subsequently, the concentration of erythrocytes in PBS (erythrocyte stock solution) was adjusted with PBS such that an absorbance of 1.5-2.0 at 412 nm (indicating hemoglobin release) was achieved upon dilution of 10 μL erythrocyte stock solution with 190 μL water.
1.5 mL of the erythrocyte stock solution was mixed with anti-CD55 antibody (BRIC216; Sigma/final concentration of 6.7 μg/mL) and incubated on ice for 30 min. After being washed once with PBS, the treated erythrocytes were resuspended in PBS-Mg to the initial volume of 1.5 mL. The following AP-mediated lysis assay was performed on this erythrocyte preparation with induced PNH phenotype.
The normal human serum was acidified with 0.2 M HCl to pH 6.4, and supplemented with MgCl2 and EGTA to final concentrations of 2.5 and 8 mM, respectively. 80 μL of this serum mixture was mixed with 10 μL of PBS-Mg (negative blank) or 10 μL of samples at various concentrations. Normal human serum was acidified with 0.2 M HCl to pH 6.4, supplemented with EDTA to a final concentration of 10 mM, and 80 μL of this serum mixture was mixed with 10 μL of PBS-Mg (negative blank) as a blank positive control. The sample was incubated with serum on ice for 5 min, and then 10 μL of sensitized erythrocytes were added. The final serum concentration in the reaction mixture was approximately 64% v/v, incubated at 37° C. for 60 min, and the reaction was quenched by adding 50 μL of ice-cold PBS containing 10 mM EDTA. The remaining unlysed cells were centrifuged at 2500×g for 10 min, and 100 μL of the supernatant was transferred to a 96-well plate to measure its absorbance at 412 nm. The amount of hemoglobin released during erythrocyte lysis was thereby quantified. […] represented the relative lysis of PNH-like erythrocytes (expressed in %; set to 0% for the PC sample and 100% for the NC sample). The absorbance was measured using a microplate reader (Molecular Devices SpectraMax 3X). The IC50 value was calculated by applying nonlinear regression with GraphPad Prism 9.0 software from the percentage of hemolysis as a function of the test compound concentration.

Row | Compound | Kd [1] | IC50 [2] | IC50 [3]
1 | CCO[C@H]1CCN(C(=O)c2c(OC)cc(C)c3[nH]ccc23)[C@H](c2ccc(C(=O)O)cc2)C1 [Compound 1 of Example 55, 4-((2S,4S)-4-Ethoxy-1-(5-methoxy-7-methyl-1H-indole-4-carbonyl)piperidin-2-yl)benzoic acid] | 10 to 30 nM | 150 to 300 nM | 1000 to 1500 nM
2 | COc1cc(C)c2[nH]ccc2c1C(=O)N1CCC(O)(C2CCC2)C[C@H]1c1ccc(C(=O)O)cc1 (mixture of isomers) [Final product of Example 154, 4-((2S)-4-Cyclobutyl-4-hydroxy-1-(5-methoxy-7-methyl-1H-indole-4-carbonyl)piperidin-2-yl)benzoic acid] | 10 to 30 nM | 400 to 450 nM | 4000 to 4500 nM
3 | COc1cc(C)c2[nH]ccc2c1C(=O)N1CC[C@H](OC)C[C@H]1c1ccc(C(=O)O)cc1 [Final product of Example 156, 4-((2S,4S)-4-Methoxy-1-(5-methoxy-7-methyl-1H-indole-4-carbonyl)piperidin-2-yl)benzoic acid] | 10 to 30 nM | 150 to 300 nM | 1000 to 1500 nM
4 | COc1cc(C)c2[nH]ccc2c1C(=O)N1CCC(O)(C2CC2)C[C@H]1c1ccc(C(=O)O)cc1 (stereo partly drawn) [Final product of Example 155, 4-((2S)-4-Cyclopropyl-4-hydroxy-1-(5-methoxy-7-methyl-1H-indole-4-carbonyl)piperidin-2-yl)benzoic Acid] | 10 to 30 nM | 150 to 300 nM | 1000 to 1500 nM
5 | CCO[C@H]1CCN(Cc2c(OC)cc(C)c3[nH]ccc23)[C@H](c2ccc(C(=O)O)cc2)C1 [LNP023, reference compound] |  |  | 224 nM
6 | CCO[C@H]1CCN(S(=O)(=O)c2c(OC)cc(C)c3[nH]ccc23)[C@H](c2ccc(C(=O)O)cc2)C1 [Compound 51 of Example 144, 4-((2S,4S)-4-Ethoxy-1-((5-methoxy-7-methyl-1H-indol-4-yl)sulfonyl)piperidin-2-yl)benzoic acid] | 10 to 30 nM | 300 to 500 nM | 2000 to 2500 nM
7 | COc1cc(C)c2[nH]ccc2c1C(=O)N1CC[C@H](OCC2CC2)C[C@H]1c1ccc(C(=O)O)cc1 [Compound 9 of Example 71, 4-((2S,4S)-4-(Cyclopropylmethoxy)-1-(5-methoxy-7-methyl-1H-indole-4-carbonyl)piperidin-2-yl)benzoic acid] | 10 to 30 nM |  | 6000 to 6500 nM
8 | COc1cc(C)c2[nH]ccc2c1C(=O)N1CC[C@H](OC2CCC2)C[C@H]1c1ccc(C(=O)O)cc1 [Final product of Example 157, 4-((2S,4S)-4-Cyclobutoxy-1-(5-methoxy-7-methyl-1H-indole-4-carbonyl)piperidin-2-yl)benzoic acid] | 10 to 30 nM | 400 to 450 nM | 4000 to 4500 nM

— patent US20260184689A1, “PIPERIDINE-SUBSTITUTED BENZOIC ACID COMPOUND, AND PHARMACEUTICAL COMPOSITION AND USE THEREOF” (SHANGHAI YISHENG BIOPHARMACEUTICAL COMPANY LIMITED, priority 2022, published 2026)
